The record followed here is patent US20150216867A1, “COMPOUNDS FOR USE IN GASTRIC COMPLICATION” (NOVARTIS AG, priority 2012, published 2015).

Where a name gives a salt, the structure may show the parent alone.

In general, IC50 refers to the concentration at which inhibition is half-maximal.

The subject of assay [1] is cultured primary DRG cells. The experiment in a line: Dorsal root ganglia stimulation with acid: low pH (6.1) induced CGRP release. It is filed as cell-based. As to conditions: read-out: IC50, block of increased CGRP release. The source says:
c) Dorsal Root Ganglia Stimulation with Acid—Blockade of the Effect with GPR4 Antagonist Low pH (6.1) induces a significant Calcitonin Gene-Related Peptide (CGPR) release in cultured primary DRG cells.

The subject of assay [2] is neutrophil recruitment into the BAL fluid. Put plainly: Neutrophil infiltration into mouse BAL fluid, cigarette smoke exposure model. It is filed as in vivo. As to conditions: WT mice, cigarette smoke 2 weeks, 90 mg/kg po. On the procedure:
e) Effect of GPR4 Antagonist on Neurophil Infiltration into Mouse BAL Fluid
The role of GPR4 on neutrophil recruitment was determined in the cigarette smoke exposure model. GPR4 WT (wild type) and KO (knockout) mice, and WT treated with the compounds of example No 41 and example No 40 (90 mg/kg po) were exposed to five cigarettes for 2 weeks. The mice were sacrificed 24 hours following last smoke exposure and bronchoalveolar lavage (BAL) was performed.
The following table summarizes the results obtained by the GPR4-mediated inhibition of neutrophil recruitment into the BAL fluid: […]

In assay [3] the target is T1, human GPR4 (Homo sapiens, UniProt P46093). Put plainly: Cell-based assay for human GPR4 activity: pH-induced cAMP formation (HTRF) in HeLa cells. On the set-up: expressed in transfected cells. As to conditions: HeLa cells stably expressing human GPR4, pH-induced cAMP formation. On the procedure:
HeLa cells stably expressing human GPR4 were established by transfecting the cells with a construct containing the human GPR4 coding sequence. The cells were grown in Dulbecco's Modified Eagle Medium (DMEM)/HAM's tissue culture medium F12 (HAM's F12) supplemented with 10% fetal calf serum (FCS), 100 u/ml penicillin, 100 μg/ml streptomycin and 400 μg/ml G418 and 10 mM Hepes pH 8.0. pH-induced formation of cAMP was determined using the homogeneous time resolved fluorescence (HTRF) technology as provided by CisBio Inc. The cells were seeded in 384-well plates and cultured for 24 hours at 37° C., 5% CO2 before performing the assay. Medium was removed and 10 μl buffer A (Hepes buffered saline (HBS), 10 mM Hepes, pH 8, 2 mM 3-Isobutyl-1-methylxanthin (IBMX)) was added. For compound testing, buffer A with 2× concentrated compounds was used. Cells were incubated for 15 min at room temperature. 10 μl buffer B (HBS, 30 mM Hepes, specific pH) was added to reach the appropriate final pH for stimulation (see below) and incubation was continued for 15 min at room temperature.
HBS: 130 mM NaCl, 0.9 mM NaH2PO4, 5.4 mM KCl, 0.8 mM MgSO4, CaCl2 1.8 mM, 25 mM glucose, 10-30 mM Hepes. Adjustment of HBS buffers:
Compounds were diluted from fresh stock solutions at 10 mM in DMSO to 2 mM and then used for serial dilutions in DMSO.
A general note: cAMP levels reflect the balance of adenylyl cyclase and phosphodiesterase activity.

For assay [4], the target named is T1, human GPR4. Put plainly: Human GPR4 binding assay ([3H]4(example 39) radioligand, membranes of 300.19 cells). On the set-up: c-myc (N); expressed in transfected cells. Here is the method: (§1) Cells were grown in T175 flasks to a density of about 1×10^6 cells/mL in growth medium. The cells were harvested by centrifugation (3000 rpm for 30 minutes at 4° C.) and the pellet resuspended in ice cold buffer A (20 mM HEPES pH 7.8, 10 mM EDTA, 100 mM NaCl, 1 tab/40 mL protease inhibitor complete). […] The homogenate was centrifuged at 18000 rpm for 50 min at 4° C. and the membrane protein pellet resuspended in cold buffer A using the Polytron (2×20 seconds). The protein concentration is determined using the Bio Rad Protein Assay and human IgG as standard. The volume of the membrane protein suspension is adjusted to a final concentration of about 2 mg protein/mL. The suspension is then once again homogenized (Polytron) on ice at 25000 rpm for 20 seconds before being aliquoted and stored at −80° C.
(§2) Radio Ligand Binding Assay: Serial dilutions of compounds (stock in 10 mM DMSO) are prepared by first diluting the compounds in DMSO followed by a 1:50 dilution into assay buffer (10 mM HEPES, pH 8.0, 100 mM NaCl, 5 mM MgCl2, 1 mM CaCl2, 0.5% fatty acid-free BSA, 0.05% Tween-20). […] The desired amount of membranes (20 μg/well) is diluted with assay buffer. […] 100 μL of the membrane-suspension is added and the plate stirred for 60 minutes. […] Finally the plate is counted for 2 min/well in a TopCount NXT instrument (Packard Instruments). The data are analyzed using the GraphPad Prism™ software.

Assay [5] deals with T1, human GPR4. Put plainly: Human GPR4 binding assay with additional human serum albumin (4% HSA). Also on record: c-myc (N); expressed in transfected cells. As to conditions: binding assay with additional 4% human serum albumin. On the procedure: as §1
as §2, with “software. […]” for “software.”

T1 sequence (P46093 whole entry): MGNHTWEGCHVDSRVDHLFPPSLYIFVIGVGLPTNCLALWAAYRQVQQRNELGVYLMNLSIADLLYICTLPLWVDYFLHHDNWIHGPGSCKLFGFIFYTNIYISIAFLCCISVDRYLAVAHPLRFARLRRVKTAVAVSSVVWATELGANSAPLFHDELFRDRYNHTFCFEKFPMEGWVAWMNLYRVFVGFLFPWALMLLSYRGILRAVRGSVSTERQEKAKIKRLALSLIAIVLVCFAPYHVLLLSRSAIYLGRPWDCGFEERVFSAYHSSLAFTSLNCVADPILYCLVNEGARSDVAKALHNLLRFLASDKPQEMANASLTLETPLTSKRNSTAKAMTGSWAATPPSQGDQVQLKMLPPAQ

In the case of `CCc1nn2c(C)cc(C)nc2c1Cc1ccc(-c2nnc(C3CCNCC3)o2)cc1` [Example 35, 2-Ethyl-5,7-dimethyl-3-[4-(5-piperidin-4-yl-[1,3,4]oxadiazol-2-yl)-benzyl]-pyrazolo[1,5-a]pyrimidine], in assay [1], the 50% inhibitory concentration (IC50) came to 530 nM.
The same measure, in the same setting: the same measure for `CCc1nn2c(C)cc(C)nc2c1Cc1ccc(/C=C/CN2CCN(C[C@@H](O)CO)CC2)cc1` [Example 17, (R)-3-(4-{(E)-3-[4-(2-Ethyl-5,7-dimethyl-pyrazolo[1,5-a]pyrimidin-3-ylmethyl)-phenyl]-allyl}-piperazin-1-yl)-propane-1,2-diol dihydrochloride]: 120 nM.
With `CCc1nc2c(C)cc(C)nc2n1Cc1ccc(/C=C/CN2CCN(C(C)C)CC2)cc1` [Example 40, 2-Ethyl-3-{4-[(E)-3-(4-isopropyl-piperazin-1-yl)-propenyl]-benzyl}-5,7-dimethyl-3H-imidazo[4,5-b]pyridine], the recruitment of neutrophils result in assay [2] was “significantly reduced”.
The same measure, in the same setting: the same measure for `CCc1nc2c(C)cc(C)nc2n1Cc1ccc(/C=C/CN2CCC(N3CCCCC3)CC2)cc1` [Example 41, 1′-{(E)-3-[4-(2-Ethyl-5,7-dimethyl-imidazo[4,5-b]pyridin-3-ylmethyl)-phenyl]-allyl}-[1,4′]bipiperidinyl dihydrochloride]: “significantly reduced”.
As to `CCc1nn2c(C)cc(C)nc2c1Cc1ccc(/C=C/C(=O)N2CCNCC2)cc1` [Example 18, (E)-3-[4-(2-Ethyl-5,7-dimethyl-pyrazolo[1,5-a]pyrimidin-3-ylmethyl)-phenyl]-1-piperazin-1-yl-propenone hydrochloride], the IC50 in assay [3] was 43 nM; in assay [4], 81 nM; in assay [5] it was 67 nM.
